# Laboratory results reported in ChEMBL document CHEMBL1201862, “PubChem BioAssay data set” (2004).
#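 Grown in 96-well plates, cells were treated for 48 hours with each compound at five concentrations. Insufficient inhibition: endpoint recorded as highest concentration tested. At the GI50, growth is halved.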 Active and inactive are the calls of the source. No stated cut-off is given here; in the data, active = GI50 up to about 1.1 µM and inactive = higher.
# Columns and labels:
# Experiment in all cases: NCI-60 cell line screen, 48 h
# [1] = system: TK-10
# [2] = system: MDA-N
# [3] = system: SF-295
# [4] = system: SN12C
# [5] = system: M14
# [6] = system: T47D
# [7] = system: UO-31
# [8] = system: OVCAR-8
# [9] = system: OVCAR-4
# [10] = system: SNB-75
# [11] = system: NCI-H460
# [12] = system: A549
# [13] = system: HT-29
# [14] = system: HCT-116
# [15] = system: OVCAR-5
# [16] = system: CCRF-CEM
# [17] = system: SK-OV-3
# [18] = system: UACC-257
# [19] = system: SR
# [20] = system: RPMI-8226
# [21] = system: HOP-92
# [22] = system: NCI-H23
# [23] = system: SK-MEL-2
# [24] = system: MCF7
# [25] = system: NCI/ADR-RES
# [26] = system: SNB-19
# [27] = system: K562
# [28] = system: 786-0
# [29] = system: EKVX
# [30] = system: MDA-MB-435
# [31] = system: HCC 2998
# [32] = system: SW-620
# [33] = system: NCI-H522
# [34] = system: A498
# [35] = system: ACHN
# [36] = system: DU-145
# [37] = system: COLO 205
# [38] = system: BT-549
# [39] = system: LOX IMVI
# [40] = system: SK-MEL-5
# [41] = system: SF-539
# [42] = system: HL-60
# [43] = system: RXF 393
# [44] = system: HOP-62
# [45] = system: MDA-MB-231
# [46] = system: IGROV-1
# [47] = system: CAKI-1
# [48] = system: PC-3
# [49] = system: MOLT-4
# [50] = system: NCI-H226
# [51] = system: UACC-62
# [52] = system: SK-MEL-28
# [53] = system: SF-268
# [54] = system: U-251
# [55] = system: KM12
# [56] = system: Hs-578T
# [57] = system: HCT-15
# [58] = system: OVCAR-3
compound,measurement,setting,value
Cn1c(-c2cccs2)cc(-c2cccs2)c1-c1ccco1,GI50,[1],41.7 µM (inactive)
same,GI50,[2],39.5 µM (inactive)
same,GI50,[3],29.4 µM (inactive)
same,GI50,[4],> 94.6 µM (inactive)
same,GI50,[5],26.4 µM (inactive)
same,GI50,[6],1.06 µM (active)
same,GI50,[7],31.5 µM (inactive)
same,GI50,[8],> 100 µM (inactive)
same,GI50,[9],1.7 µM (inactive)
same,GI50,[10],31.8 µM (inactive)
same,GI50,[11],38.7 µM (inactive)
same,GI50,[12],50.8 µM (inactive)
same,GI50,[13],> 67.6 µM (inactive)
same,GI50,[14],27.7 µM (inactive)
same,GI50,[15],> 100 µM (inactive)
same,GI50,[16],28.8 µM (inactive)
same,GI50,[17],> 100 µM (inactive)
same,GI50,[18],39.9 µM (inactive)
same,GI50,[19],14.8 µM (inactive)
same,GI50,[20],31 µM (inactive)
same,GI50,[21],63 µM (inactive)
same,GI50,[22],3.02 µM (inactive)
same,GI50,[23],30.3 µM (inactive)
same,GI50,[24],0.473 µM (active)
same,GI50,[25],40.7 µM (inactive)
same,GI50,[26],> 100 µM (inactive)
same,GI50,[27],10.2 µM (inactive)
same,GI50,[28],69.2 µM (inactive)
same,GI50,[29],16.6 µM (inactive)
same,GI50,[30],7.16 µM (inactive)
same,GI50,[31],26.6 µM (inactive)
same,GI50,[32],50.5 µM (inactive)
same,GI50,[33],21.2 µM (inactive)
same,GI50,[34],27.7 µM (inactive)
same,GI50,[35],> 93.3 µM (inactive)
same,GI50,[36],> 100 µM (inactive)
same,GI50,[37],27.5 µM (inactive)
same,GI50,[38],> 100 µM (inactive)
same,GI50,[39],22.7 µM (inactive)
same,GI50,[40],23.8 µM (inactive)
same,GI50,[41],> 100 µM (inactive)
same,GI50,[42],23.9 µM (inactive)
same,GI50,[43],27.9 µM (inactive)
same,GI50,[44],> 92 µM (inactive)
same,GI50,[45],51.4 µM (inactive)
same,GI50,[46],> 48.9 µM (inactive)
same,GI50,[47],11.4 µM (inactive)
same,GI50,[48],72.6 µM (inactive)
same,GI50,[49],1.8 µM (inactive)
same,GI50,[50],> 100 µM (inactive)
same,GI50,[51],30.9 µM (inactive)
same,GI50,[52],49.1 µM (inactive)
same,GI50,[53],> 66.4 µM (inactive)
same,GI50,[54],56.1 µM (inactive)
same,GI50,[55],6.07 µM (inactive)
same,GI50,[56],26.5 µM (inactive)
same,GI50,[57],14.4 µM
same,GI50,[58],19.2 µM (inactive)
